Data from ChEMBL document CHEMBL1157257, “Bioactive ent-clerodane diterpenoids from the aerial parts of Baccharis gaudichaudiana” (2006).
The source made the active and inactive calls. The rule behind the calls is not given here.

Experiments:
[1] = tested on: PC-12; test: Enhancement of NGF-induced neurite outgrowth in rat PC12D cells at 10 to 100 umol after 48 hrs by phase-contrast microscopy; type: functional, cell-based
[2] = tested on: PC-12; test: Effect on neurite outgrowth from rat PC12D cells at 10 to 100 umol after 48 hrs by phase-contrast microscopy; type: functional, cell-based
[3] = tested on: PC-12; test: Enhancement of 2 ng/mL NGF-induced neurite outgrowth in rat PC12D cells at 100 umol after 48 hrs by phase-contrast microscopy relative to 50 ng/mL NGF alone; type: functional

COC(=O)CC(CO)CC[C@@]1(C)[C@H](C)C(=O)C[C@@]23COC(=O)C2=CCC[C@@H]31 (stereo not given in full)
Activity [1]: inactive

CO[C@@H]1C[C@H](CC[C@@]2(C)[C@H](C)CC[C@@]3(C)C(C(=O)O)=CCC[C@H]23)CO1
Activity [2]: inactive | Activity [3]: 53%

CO[C@H]1C[C@H](CC[C@@]2(C)[C@H](C)CC[C@@]3(C)C(C(=O)O)=CCC[C@H]23)CO1
Activity [2]: inactive | Activity [3]: 49%
